From ChEMBL document CHEMBL5108044, “Discovery of a Novel Potent STAT3 Inhibitor HP590 with Dual p-Tyr705/Ser727 Inhibitory Activity for Gastric Cancer Treatment” (J Med Chem, 2022)
Activity calls are given as the source filed them. The rule behind the calls is not given here.

Tests used:
MKN-45 [1] = experiment: In vivo inhibition of STAT3 in human MKN-45 cells xenografted in BALB/c nude mouse assessed as reduction in c-myc gene expression at 25 to 50 mg/kg, po qd administered for 5 weeks by Western blot analysis; assay type: functional, organism-based; details: dose 25-50 mg/kg
MKN-45 [2] = experiment: In vivo inhibition of STAT3 in human MKN-45 cells xenografted in BALB/c nude mouse assessed as reduction in cyclin D1 gene expression at 25 to 50 mg/kg, po qd administered for 5 weeks by Western blot analysis; assay type: functional, organism-based; details: dose 25-50 mg/kg
[3] = target: T1, Signal transducer and activator of transcription 3 (Homo sapiens, UniProt P40763); experiment: Inhibition of STAT3 phosphorylation at Tyr705 residue in human MKN-45 cells upto 40 nM incubated upto 24 hrs by Western blotting analysis; assay type: cell-based
[4] = target: T1, Signal transducer and activator of transcription 3; experiment: Inhibition of STAT3 phosphorylation at Tyr705 residue in human AGS cells upto 40 nM incubated upto 24 hrs by Western blotting analysis; assay type: cell-based
[5] = target: T1, Signal transducer and activator of transcription 3; experiment: Inhibition of STAT3 phosphorylation at Ser727 residue in human AGS cells upto 40 nM incubated upto 24 hrs by Western blotting analysis; assay type: cell-based
[6] = target: T1, Signal transducer and activator of transcription 3; experiment: Inhibition of STAT3 phosphorylation at Tyr705 residue in human MGC-803 cells incubated upto 24 hrs by Western blotting analysis; assay type: cell-based; details: dose <= 40.0 nM, DDE = dose-dependent effect
[7] = target: T1, Signal transducer and activator of transcription 3; experiment: Inhibition of STAT3 phosphorylation at Ser727 residue in human MKN-45 cells upto 40 nM by Western blotting analysis; assay type: cell-based; details: time <= 24.0 hrs, TDE = time-dependent effect
[8] = target: Mitogen-activated protein kinase 3 (Homo sapiens, UniProt P27361); experiment: Inhibition of ERK1 (unknown origin)
[9] = target: Mitogen-activated protein kinase 8 (Homo sapiens, UniProt P45983); experiment: Inhibition of JNK1 (unknown origin)
[10] = target: T2, Mitogen-activated protein kinase 13 (Homo sapiens, UniProt O15264); experiment: Inhibition of p38delta (unknown origin)
T2 sequence (O15264 whole entry): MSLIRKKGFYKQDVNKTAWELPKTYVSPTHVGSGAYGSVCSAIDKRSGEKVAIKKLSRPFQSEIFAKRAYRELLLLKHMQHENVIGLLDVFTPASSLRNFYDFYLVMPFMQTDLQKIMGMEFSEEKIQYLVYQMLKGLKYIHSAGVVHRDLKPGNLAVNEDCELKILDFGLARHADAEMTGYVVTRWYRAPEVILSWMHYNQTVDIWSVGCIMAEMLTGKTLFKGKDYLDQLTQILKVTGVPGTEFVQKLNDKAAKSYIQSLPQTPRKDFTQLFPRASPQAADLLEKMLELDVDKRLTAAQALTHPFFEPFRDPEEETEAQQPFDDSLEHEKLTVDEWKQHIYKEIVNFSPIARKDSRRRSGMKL

[11] = target: T1, Signal transducer and activator of transcription 3; experiment: Inhibition of STAT3 in human MKN-45 cells assessed as downregulation of c-Myc expression incubated up to 24 hrs by western blot analysis; assay type: cell-based; details: dose <= 40.0 nM, DDE = dose-dependent effect
[12] = target: T1, Signal transducer and activator of transcription 3; experiment: Inhibition of STAT3 in human AGS cells assessed as downregulation of cyclin D1 expression incubated up to 24 hrs by western blot analysis; assay type: cell-based; details: dose <= 40.0 nM, DDE = dose-dependent effect
[13] = target: T1, Signal transducer and activator of transcription 3; experiment: Inhibition of STAT3 in human MKN-45 cells assessed as downregulation of cyclin D1 expression up to 40 nM by western blot analysis; assay type: cell-based; details: time <= 24.0 hrs, TDE = time-dependent effect
[14] = target: T1, Signal transducer and activator of transcription 3; experiment: Inhibition of STAT3 in human MKN-45 cells assessed as downregulation of Bcl2 expression at 10 to 40 nM incubated for 24 hrs by RT-PCR analysis; assay type: cell-based; details: dose 10-40 nM
[15] = target: T1, Signal transducer and activator of transcription 3; experiment: Inhibition of STAT3 in human AGS cells assessed as downregulation of Bcl2 expression at 10 to 40 nM incubated for 24 hrs by RT-PCR analysis; assay type: cell-based; details: dose 10-40 nM
[16] = target: T1, Signal transducer and activator of transcription 3; experiment: Inhibition of STAT3 in human AGS cells assessed as downregulation of Survivin expression at 10 to 40 nM incubated for 24 hrs by RT-PCR analysis; assay type: cell-based; details: dose 10-40 nM
[17] = target: T1, Signal transducer and activator of transcription 3; experiment: Inhibition of STAT3 in human GES1cells assessed as downregulation of c-myc expression at 10 to 40 nM incubated for 24 hrs by RT-PCR analysis; assay type: cell-based; details: GES1, dose 10-40 nM
[18] = target: T1, Signal transducer and activator of transcription 3; experiment: Inhibition of phosphorylated STAT3 nuclear translocation at Tyr705 residue in human MKN-45 cells measured at 5 to 40 nM by immunoblotting analysis; assay type: cell-based; details: dose 5-40 nM
AGS [19] = experiment: Antiproliferative activity against human AGS cells assessed as cell viability incubated for 72 hrs by MTS assay; assay type: functional, cell-based; details: dose <= 100.0 nM, DDE = dose-dependent effect
MKN-45 [20] = experiment: Inhibition of colony formation in human MKN-45 cells assessed as reduction in number of colonies incubated for 5 to 7 days by crystal violet staining based assay; assay type: functional, cell-based; details: dose <= 20.0 nM, time 5-7 day, DDE = dose-dependent effect
MKN-45 [21] = experiment: Induction of apoptosis in human MKN-45 cells assessed as late apoptic cells 5 nM incubated for 48 hrs by FITC-annexin V/propidium iodide staining based flow cytometry (reference value: 17.9%); assay type: functional
MKN-45 [22] = experiment: Induction of apoptosis in human MKN-45 cells assessed as late apoptic cells 10 nM incubated for 48 hrs by FITC-annexin V/propidium iodide staining based flow cytometry (reference value: 17.9%); assay type: functional
AGS [23] = experiment: Induction of apoptosis in human AGS cells assessed as viable cells at 5 nM incubated for 48 hrs by FITC-annexin V/propidium iodide staining based flow cytometry (reference value: 87.2%); assay type: functional; details: read-out: Activity
AGS [24] = experiment: Induction of apoptosis in human AGS cells assessed as necrotic cells 20 nM incubated for 48 hrs by FITC-annexin V/propidium iodide staining based flow cytometry (reference value: 2.70%); assay type: functional
Cytochrome P450 2C9 = Cytochrome P450 2C9 (Homo sapiens, UniProt P11712); experiment: Inhibition of CYP2C9 in human liver microsome; assay type: ADME, microsomes
Cytochrome P450 3A4 = Cytochrome P450 3A4 (Homo sapiens, UniProt P08684); experiment: Inhibition of CYP3A4 in human liver microsome; assay type: ADME, microsomes
[25] = AUC (0 to t) in ICR mouse plasma at 10 mg/kg, po measured up to 24 hrs by LC-MS/MS analysis; assay type: ADME, organism-based; set-up: time < 24 hrs, dose 10 mg/kg, route po
[26] = Volume of distribution at steady state in ICR mouse plasma at 1 mg/kg, iv measured up to 24 hrs by LC-MS/MS analysis; assay type: ADME, organism-based; details: read-out: Vdss
MKN-45 [27] = experiment: Potency index, ratio of IC50 for BBI608 to IC50 for test compound for antiproliferative activity against human MKN-45 cells assessed as reduction in cell viability incubated for 72 hrs by MTS assay; assay type: functional
MKN-45 [28] = experiment: Inhibition of colony formation in STAT3 knockdown human MKN-45 cells assessed as reduction in number of colonies incubated for 5 to 7 days by crystal violet staining based assay; assay type: functional, cell-based; details: time 5-7 day
MKN-45 [29] = experiment: In vivo inhibition of STAT3 in human MKN-45 cells xenografted in BALB/c nude mouse assessed as reduction in STAT3 gene expression at 25 to 50 mg/kg, po qd administered for 5 weeks by Western blot analysis; assay type: functional, organism-based; details: dose 25-50 mg/kg
MKN-45 [30] = experiment: In vivo inhibition of STAT3 phosphorylation at Ser727 residue in human MKN-45 cells xenografted in BALB/c nude mouse at 25 to 50 mg/kg, po qd administered for 5 weeks by immunohistochemical analysis; assay type: functional, organism-based; details: dose 25-50 mg/kg

T1 sequence (P40763 whole entry): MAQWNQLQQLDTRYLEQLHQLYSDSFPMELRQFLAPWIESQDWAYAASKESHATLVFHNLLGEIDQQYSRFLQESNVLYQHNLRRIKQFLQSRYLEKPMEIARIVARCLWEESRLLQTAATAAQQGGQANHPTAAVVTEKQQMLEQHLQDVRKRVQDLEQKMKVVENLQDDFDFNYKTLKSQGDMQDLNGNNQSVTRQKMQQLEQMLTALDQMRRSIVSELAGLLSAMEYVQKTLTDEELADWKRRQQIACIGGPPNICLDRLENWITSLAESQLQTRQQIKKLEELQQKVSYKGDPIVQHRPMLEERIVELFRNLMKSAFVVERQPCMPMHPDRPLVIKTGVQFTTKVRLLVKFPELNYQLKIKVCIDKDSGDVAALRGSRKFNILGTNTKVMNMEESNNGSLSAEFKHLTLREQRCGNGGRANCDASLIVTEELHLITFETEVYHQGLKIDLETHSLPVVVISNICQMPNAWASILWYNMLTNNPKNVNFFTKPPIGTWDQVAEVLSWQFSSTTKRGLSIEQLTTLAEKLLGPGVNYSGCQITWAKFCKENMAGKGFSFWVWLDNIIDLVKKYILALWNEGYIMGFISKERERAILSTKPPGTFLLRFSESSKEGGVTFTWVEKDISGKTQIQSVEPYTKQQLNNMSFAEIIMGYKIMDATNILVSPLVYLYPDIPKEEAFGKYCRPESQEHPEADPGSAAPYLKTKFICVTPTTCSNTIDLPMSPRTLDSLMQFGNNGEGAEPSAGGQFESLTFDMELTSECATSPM
Mitogen-activated protein kinase 3, sequence (P27361 whole entry): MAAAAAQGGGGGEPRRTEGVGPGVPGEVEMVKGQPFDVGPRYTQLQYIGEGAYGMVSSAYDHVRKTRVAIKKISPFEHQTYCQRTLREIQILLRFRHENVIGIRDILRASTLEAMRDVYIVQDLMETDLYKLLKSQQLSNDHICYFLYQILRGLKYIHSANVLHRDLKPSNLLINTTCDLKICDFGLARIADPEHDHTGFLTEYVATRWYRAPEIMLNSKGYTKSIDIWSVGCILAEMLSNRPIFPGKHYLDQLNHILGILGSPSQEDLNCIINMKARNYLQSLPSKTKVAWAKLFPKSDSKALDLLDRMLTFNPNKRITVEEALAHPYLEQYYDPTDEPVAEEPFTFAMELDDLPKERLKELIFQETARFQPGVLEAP
Mitogen-activated protein kinase 8, sequence (P45983 whole entry): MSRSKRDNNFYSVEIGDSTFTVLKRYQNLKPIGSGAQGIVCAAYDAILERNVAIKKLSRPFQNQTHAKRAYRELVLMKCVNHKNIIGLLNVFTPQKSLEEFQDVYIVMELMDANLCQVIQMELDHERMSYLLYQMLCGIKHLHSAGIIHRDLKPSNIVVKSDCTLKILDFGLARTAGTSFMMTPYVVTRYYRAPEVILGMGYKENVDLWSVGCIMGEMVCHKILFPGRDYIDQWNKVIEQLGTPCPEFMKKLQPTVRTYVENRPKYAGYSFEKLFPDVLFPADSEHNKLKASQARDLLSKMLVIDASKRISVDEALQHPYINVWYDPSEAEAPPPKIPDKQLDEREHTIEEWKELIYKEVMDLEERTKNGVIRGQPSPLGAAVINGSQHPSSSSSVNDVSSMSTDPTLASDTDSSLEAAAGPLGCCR
Cytochrome P450 2C9, sequence (P11712 whole entry): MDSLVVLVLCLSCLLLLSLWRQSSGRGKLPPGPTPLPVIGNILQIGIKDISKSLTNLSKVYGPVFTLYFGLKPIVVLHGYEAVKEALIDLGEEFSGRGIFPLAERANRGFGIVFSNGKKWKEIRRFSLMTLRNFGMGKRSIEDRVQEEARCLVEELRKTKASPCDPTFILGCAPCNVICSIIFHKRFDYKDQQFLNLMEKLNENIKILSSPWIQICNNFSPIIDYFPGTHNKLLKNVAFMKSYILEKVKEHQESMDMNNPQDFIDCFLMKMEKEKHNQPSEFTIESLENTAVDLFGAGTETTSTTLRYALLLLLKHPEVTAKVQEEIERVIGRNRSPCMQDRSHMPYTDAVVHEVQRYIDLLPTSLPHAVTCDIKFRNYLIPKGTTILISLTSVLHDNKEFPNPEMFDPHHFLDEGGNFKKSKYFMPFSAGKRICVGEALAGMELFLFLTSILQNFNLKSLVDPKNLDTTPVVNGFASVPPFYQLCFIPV
Cytochrome P450 3A4, sequence (P08684 whole entry): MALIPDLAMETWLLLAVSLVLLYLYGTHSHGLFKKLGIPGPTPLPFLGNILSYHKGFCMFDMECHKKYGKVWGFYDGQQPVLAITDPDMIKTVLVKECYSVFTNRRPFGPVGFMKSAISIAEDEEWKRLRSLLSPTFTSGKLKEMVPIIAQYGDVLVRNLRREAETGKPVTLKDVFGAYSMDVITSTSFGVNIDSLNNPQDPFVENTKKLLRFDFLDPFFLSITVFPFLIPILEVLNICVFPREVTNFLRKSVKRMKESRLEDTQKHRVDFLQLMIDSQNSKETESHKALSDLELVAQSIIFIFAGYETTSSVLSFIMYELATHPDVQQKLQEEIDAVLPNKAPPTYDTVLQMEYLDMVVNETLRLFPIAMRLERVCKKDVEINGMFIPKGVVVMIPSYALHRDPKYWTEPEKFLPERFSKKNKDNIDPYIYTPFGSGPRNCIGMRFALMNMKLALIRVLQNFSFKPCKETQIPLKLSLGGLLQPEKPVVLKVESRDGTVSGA

inhibition [3]: 100% | inhibition [4]: 100% | inhibition [5]: 100% | inhibition [6]: Dde | inhibition [7]: Tde | IC50 [8]: > 10 µM | IC50 [9]: > 10 µM | IC50 [10]: > 10 µM | inhibition [11]: Dde | inhibition [12]: Dde | inhibition [13]: Tde | inhibition [14]: Active | inhibition [15]: Active | inhibition [17]: Active | inhibition [18]: Active | IC50 (Cytochrome P450 2C9): 22.9 µM | IC50 (Cytochrome P450 3A4): > 50 µM | AUC(0-t) at 24 h [25]: 9400 ng·h/mL | Vd [26]: 6.56 L/kg
SMILES: O=C(c1ccc(-c2noc(-c3ccc(C(F)(F)F)cc3)n2)cc1)N1CCN(Cc2ccc(OCC(F)(F)F)cc2)CC1
inhibition (MKN-45 [1]): Active | inhibition (MKN-45 [2]): Active | inhibition [16]: Active | Activity (AGS [19]): Dde | inhibition (MKN-45 [20]): Dde | Activity (MKN-45 [21]): 17.1% | Activity (MKN-45 [22]): 19.6% | viability at 0.005 µM (AGS [23]): 85.7% | Activity (AGS [24]): 0.8% | Ratio IC50 (MKN-45 [27]): 30 | inhibition (MKN-45 [28]): Active | inhibition (MKN-45 [29]): Active | inhibition (MKN-45 [30]): Active
